Like-named read-outs stand apart in the source and are kept apart here.
Tests used:
[1] = test system: HCT116 p53+/+, HCT116 p53−/−, Raji, HeLa, SK-N-MC and NHDF cells; assay: Proliferation assay, ranges stated over several cell-types; format: cell-based, human; conditions: for IC50: Homo sapiens; for Therapeutic index, NHDF relative to HCT116 cells: range over HCT116 p53+/+ and p53−/− and over the compounds named
Procedure: The human cancer cell types (neuroepithelioma (SK-N-MC), colon cancer (HCT116 with wild-type p53 (p53^+/+)), Burkitt's lymphoma (Raji) and cervical carcinoma (HeLa)) cells and normal human dermal fibroblasts (NHDF) were obtained from the American Type Culture Collection (ATCC, Manassas, VA, USA). HCT116 null p53 (p53^−/−) cells were obtained from the Maria Sklodowska-Curie Memorial Cancer Center and Institute of Oncology, Poland.
The SK-N-MC cells were cultured in minimum essential medium (MEM; Life Technologies, Grand Island, New York, USA) containing 10% (v/v) fetal bovine serum (FBS; Life Technologies), 1 mM sodium pyruvate (Life Technologies), 1% (v/v) non-essential amino acids (Life Technologies), 2 mM L-glutamine (Life Technologies), 100 U/mL penicillin (Life Technologies), 100 µg/mL streptomycin (Life Technologies) and 0.28 µg/mL fungizone (Bristol Myers Squibb Pharmaceuticals, Montreal, Canada). The HCT116 and NHDF cells were grown in Dulbecco's modified Eagle's medium (DMEM; Sigma-Aldrich) supplemented with 12% (v/v) heat-inactivated FBS (HCT116; Life Technologies) or 15% (v/v) FBS (NHDF; Life Technologies), 100 µg/mL of gentamicin (Polfa Warszawa S.A., Warsaw, Poland), 100 µg/mL of streptomycin (Polfa) and 100 U/mL of penicillin (Polfa). The Raji and HeLa cells were cultured in Roswell Park Memorial Institute medium (RPMI-1640; Sigma-Aldrich) with the addition of 10% (v/v) heat-inactivated FBS (Life Technologies) and the supplements described for SK-N-MC cells above. All cell lines were cultured under standard conditions at 37°C in a humidified atmosphere at 5% CO2 and were subcultured every 3–4 days as required.
The cells were seeded in 96-well plates (SK-N-MC: 1.5×10^4 cells/well; HeLa: 5.0×10^3 cells/well; Raji: 3.0×10^3 cells/well; HCT116: 3.5×10^3 cells/well; NHDF: 3.0×10^3 cells/well) 24 h prior to the addition of the novel compounds. The assays were performed using a 72 h (SK-N-MC, Raji, HeLa) or 96 h (HCT 116, NHDF) incubation period with the agents at 37°C. […] Additionally, DFO and Dp44mT were included as positive controls in all experiments as their activity is well characterized, [42], [50].
Chelator stock solutions were prepared in DMSO and diluted in media so that the final [DMSO] <0.05%. The results were expressed as a percentage of the control and the resulting IC50 values were calculated using GraphPad Prism 5 (GraphPad Software, Inc., La Jolla, CA, USA). The IC50 was defined as the concentration necessary to reduce the absorbance to 50% of the untreated control. Each individual compound was tested in triplicate in a single experiment, with each experiment being repeated three times. After incubation of HCT 116 and NHDF cells with the tested compounds, 20 µL of the CellTiter 96 Aqueous One Solution - MTS (Promega, Madison, WI, USA) solution was added to each well (with 100 µL of DMEM without phenol red) and incubated for 1 h/37°C. The optical density of the samples was analyzed at 490 nm.
MTT (3-[4,5-dimethylthiazol-2-yl]-2,5-diphenyltetrazolium bromide) was used to evaluate the anti-proliferative effects of the chelators in SK-N-MC and Raji cells. Following incubation with the investigated compounds, 10 µL of MTT (5 mg/mL in PBS; Sigma-Aldrich) was added to each well. After a 2 h (SK-N-MC) or 4 h (Raji) incubation, the plates were centrifuged, and the cells were lysed with 100 µL of 10% SDS-50% isobutanol in 0.01 M HCl (SK-N-MC) or DMSO (Raji). The absorbance was measured at 570 nm. The anti-proliferative effects of these novel agents on HeLa cells were estimated using crystal violet staining (0.5% crystal violet solution for 10 min). Finally, the wells were rinsed with water and the cells were lysed with 2% SDS. The optical density of the samples was analyzed at 595 nm.

[2] = set-up: method as in PMID 17003122; conditions: high, non-optimal doses; cited from earlier work
[3] = test system: murine M109 lung carcinoma; set-up: method as in PMID 15150082; conditions: five day treatment, 0.4 mg/kg, mice; cited from earlier work
[4] = HCT-116, range over HCT116 p53+/+ and p53−/− cells and over the compounds named, read-out: IC50 range in HCT116 cells

| SMILES | IC50 [1, 4] | Therapeutic index, NHDF relative to HCT116 cells [1] | Toxicity finding [2] | Growth of murine M109 lung carcinoma (% of the control) [3] | IC50 ([1]; range over the cancer cell-types of Table 1, read-out: IC50 range, anti-cancer activity) |
| --- | --- | --- | --- | --- | --- |
| S=C(N/N=C/c1ccc2ccccc2n1)N1CCN(c2ccccc2)CC1 [2b] | 0.8 to 90 nM | 0.4–0.8 |  |  |  |
| CN(C(=S)N/N=C/c1ccc2ccccc2n1)C1CCCCC1 [2f] | 0.8 to 90 nM | 0.4–0.8 |  |  |  |
| CN(C)C(=S)NN=C(c1ccccn1)c1ccccn1 [Dp44mT, di-2-pyridylketone 4,4-dimethyl-3-thiosemicarbazone, reference compound] |  |  | cardiac fibrosis | 47% | 2 to 40 nM |

From publication PMC4199632, “Exploring the Anti-Cancer Activity of Novel Thiosemicarbazones Generated through the Combination of Retro-Fragments: Dissection of Critical Structure-Activity Relationships” (PLoS ONE, 2014)
